From article PMC3646166, “Comparison of Aqueous and 1-Octanol Solubility as well as Liquid–Liquid Distribution of Acyclovir Derivatives and Their Complexes with Hydroxypropyl-β-Cyclodextrin” (Journal of Solution Chemistry, 2013)
Converted amounts (≈) assume the structure as drawn. Like-named read-outs stand apart in the source and are kept apart here.

How the values were obtained:
Assay type in all cases: physicochemical
[1] = Solubility in water or 1-octanol (saturated solutions, UV-Vis); settings: for solubility: thermodynamic from solid, water
Protocol: The sample of substance examined (10 mg or 80 mg for 6-Me-TACV) was placed in a glass ampoule and double-distilled, deionized water (Millipore, Elix 5 purifier), or pure anhydrous 1-octanol (Sigma 99 %) was added. To attain thermodynamic equilibrium, the solute and the solvent were mixed continuously for a minimum of 4 days at a speed of 25 rpm. After the experiment was completed, the sample was centrifuged at 40,000 rpm for 40 min at 25 ± 0.1 °C, the supernatant liquid was collected, diluted, and its concentration determined with a UV–Vis (Varian Carry IE) spectrophotometer. The experiments were repeated at least three times for each solubility.

[2] = Extraction experiments, 1-octanol-water partition coefficient; settings: 25 °C, read-out: Partition coefficient 1-octanol–water, P oc/w (converted)
Protocol: The equipment described above was also used for the determination of the 1-octanol-water partition coefficients. […] The partition coefficient was evaluated as:1 Poc/w=Coc/Cw where C oc and C w are the molar concentrations of the solute in the 1-octanol and water phases, respectively. The correctness of the P oc/w value of each compound was verified by checking the mass balance of the starting amount of the substance and the total amount of the substance partitioned between the two phases.

[3] = Solubility in buffered cyclodextrin solutions (excess method of Higuchi and Connors); settings: for Correlation parameter a (Eq. 2, Cs = a + b·CCD) / Correlation parameter b (Eq. 2, Cs = a + b·CCD): buffered HP-β-CD solutions
Protocol: Solubilities of the studied compounds was ensured according to the excess method of Higuchi and Connors. […] An excess amount of compounds 4-9 and 11-12 was added to 1.5 mL of aqueous phosphate buffer (concentration of buffer was equal 0.067 mol·dm^-3) solutions, (pH = 5.5 or 7.0) containing various concentration of HP-β-CD. The cyclodextrin concentration changed in the range of 10^-3 to 2 × 10^-2 mol·dm^-3. The suspensions were shaken in screw-capped plastic vials in a water bath thermostat with the volume of 60 dm^3 (home made apparatus by IChF PAN) at 25 and 37 °C. After 7 days equilibrium was reached and then the suspensions were centrifuged and the absorbance of the studied compounds was measured by UV-Vis spectrophotometry using a Shimadzu UV 2401 PC Spectrometer equipped with a thermostatically controlled cell compartment. During the measurement of absorbance, a buffered-solution of HP-β-CD, of the same concentration as in the studied solution, was always put as the reference. The average values of at least three independent determinations of the absorbance were used for calculation of the concentrations of the particular acyclovir derivatives. […] The main reason for the low solubility of tricyclic acyclovir derivatives with aromatic groups in water is the high hydrophobicity of these substituents. Use of cyclodextrins, which can include aromatic groups into their cavity, may enhance the aqueous solubility of such compounds. For this purpose we used several cyclodextrins and hydroxypropyl-β-cyclodextrin was chosen as being more efficient for complexating the tricyclic acyclovir derivatives. The investigations were performed, for chosen compounds, in various cyclodextrin HP-β-CD, buffered solutions (pH = 5.5 and 7.0) at 25 and 37 °C. […] Values of the correlation parameters a and b for tricyclic acyclovir derivatives complexed by cyclodextrin are presented in Table 3. […] The stability constants of the inclusion complexes between HP-β-CD and acyclovir derivatives have been calculated according to the Higuchi-Connors method using:3 K=b/C0(1-b) where C 0 is the solubility of the sample in solutions without cyclodextrin, obtained by determination of saturated solution concentration of acyclovir derivative solutions. […] These two values can differ, but in our study are very close to each other.

[4] = 25 °C (Table 1), read-out: Solubility in water, C w
[5] = water saturated with 1-octanol, 25 °C, read-out: Solubility in water saturated with 1-octanol, C woc
[6] = 35 °C, read-out: Aqueous solubility, C w
[7] = 45 °C, read-out: Aqueous solubility, C w

Structure (SMILES): Nc1nc2c(ncn2COCCO)c(=O)[nH]1 [Compound 1, 9-[(2-hydroxyethoxy)methyl] guanine, reference compound]
- solubility [1, 4]: 8.07 mM (≈ 1820 µg/mL)
- solubility [1, 5]: 7.44 mM (≈ 1680 µg/mL)
- solubility [1, 6]: 16.2 mM (≈ 3650 µg/mL)
- solubility [1, 7]: 19.7 mM (≈ 4440 µg/mL)
- logP at 2 days [2]: -1.44

Structure (SMILES): Nc1nc2c(nc(Br)n2COCCO)c(=O)[nH]1 [Compound 2, 8-bromo-9-[(2-hydroxyethoxy)methyl] guanine]
- Solubility ratio in 1-octanol and water, C oc/C w ([1]; 25 °C): 0.430
- Solubility ratio in 1-octanol saturated with water and water saturated with 1-octanol, C ocw/C woc ([1]; 25 °C): 0.802
- solubility [1, 4]: 1.03 mM (≈ 313 µg/mL)
- solubility [1, 5]: 0.859 mM (≈ 261 µg/mL)
- solubility [1, 6]: 1.9 mM (≈ 578 µg/mL)
- solubility [1, 7]: 2.49 mM (≈ 757 µg/mL)
- logP at 2 days [2]: -0.264

Structure (SMILES): Nc1nc(O)c2ncn(COC(CO)CO)c2n1 [Compound 3, 9-[(1,3-dihydroxy-2-propoxy)methyl]guanine, reference compound]
- solubility [1, 4]: 12.3 mM (≈ 3140 µg/mL)
- solubility [1, 5]: 11 mM (≈ 2810 µg/mL)
- solubility [1, 6]: 21.8 mM (≈ 5560 µg/mL)
- solubility [1, 7]: 22.9 mM (≈ 5840 µg/mL)
- logP at 2 days [2]: -1.77

Structure (SMILES): O=c1c2ncn(COCCO)c2nc2[nH]ccn12 [Compound 4, 3,9-dihydro-3-[(2-hydroxyethoxy)methyl]-9-oxo-5H-imidazol[1,2-a]purine]
- Solubility ratio in 1-octanol and water, C oc/C w ([1]; 25 °C): 0.046
- Solubility ratio in 1-octanol saturated with water and water saturated with 1-octanol, C ocw/C woc ([1]; 25 °C): 0.157
- solubility [1, 4]: 3.07 mM (≈ 765 µg/mL)
- solubility [1, 5]: 2.72 mM (≈ 678 µg/mL)
- solubility [1, 6]: 5.91 mM (≈ 1470 µg/mL)
- solubility [1, 7]: 6.75 mM (≈ 1680 µg/mL)
- logP at 2 days [2]: -0.86
- Correlation parameter a (Eq. 2, Cs = a + b·CCD) ([3]; pH = 5.5, 25 °C): 2.64 × 10^−3
- Correlation parameter b (Eq. 2, Cs = a + b·CCD) ([3]; pH = 5.5, 25 °C): 1.98 × 10^−2
- Correlation parameter a (Eq. 2, Cs = a + b·CCD) ([3]; pH = 5.5, 37 °C): 5.15 × 10^−3
- Correlation parameter b (Eq. 2, Cs = a + b·CCD) ([3]; pH = 5.5, 37 °C): 2.72 × 10^−2
- Correlation parameter a (Eq. 2, Cs = a + b·CCD) ([3]; pH = 7.0, 25 °C): 2.48 × 10^−3
- Correlation parameter b (Eq. 2, Cs = a + b·CCD) ([3]; pH = 7.0, 25 °C): 2.05 × 10^−2
- Correlation parameter a (Eq. 2, Cs = a + b·CCD) ([3]; pH = 7.0, 37 °C): 4.79 × 10^−3
- Correlation parameter b (Eq. 2, Cs = a + b·CCD) ([3]; pH = 7.0, 37 °C): 2.56 × 10^−2
- Stability constant K s of HP-β-CD complex ([3]; pH = 5.5, 25 °C): 8.0 (±1) dm·mol^−1
- Stability constant K s of HP-β-CD complex ([3]; pH = 5.5, 37 °C): 6.0 (±1) dm·mol^−1
- Stability constant K s of HP-β-CD complex ([3]; pH = 7, 25 °C): 8.0 (±1) dm·mol^−1
- Stability constant K s of HP-β-CD complex ([3]; pH = 7, 37 °C): 6.0 (±1) dm·mol^−1

Structure (SMILES): Cc1cn2c(=O)c3ncn(COCCO)c3nc2[nH]1 [Compound 5]
- Solubility ratio in 1-octanol and water, C oc/C w ([1]; 25 °C): 0.173
- Solubility ratio in 1-octanol saturated with water and water saturated with 1-octanol, C ocw/C woc ([1]; 25 °C): 0.274
- solubility [1, 4]: 18.7 mM (≈ 4920 µg/mL)
- solubility [1, 5]: 13.1 mM (≈ 3450 µg/mL)
- solubility [1, 6]: 26.6 mM (≈ 7000 µg/mL)
- solubility [1, 7]: 32.4 mM (≈ 8530 µg/mL)
- logP at 2 days [2]: -0.688

Structure (SMILES): Cc1cn2c(=O)c3nc(Br)n(COCCO)c3nc2[nH]1 [Compound 6]
- Solubility ratio in 1-octanol and water, C oc/C w ([1]; 25 °C): 0.108
- Solubility ratio in 1-octanol saturated with water and water saturated with 1-octanol, C ocw/C woc ([1]; 25 °C): 0.816
- solubility [1, 4]: 2.11 mM (≈ 722 µg/mL)
- solubility [1, 5]: 1.05 mM (≈ 360 µg/mL)
- solubility [1, 6]: 2.36 mM (≈ 807 µg/mL)
- solubility [1, 7]: 2.59 mM (≈ 886 µg/mL)
- logP at 2 days [2]: -0.108
- Correlation parameter a (Eq. 2, Cs = a + b·CCD) ([3]; pH = 5.5, 25 °C): 1.18 × 10^−3
- Correlation parameter b (Eq. 2, Cs = a + b·CCD) ([3]; pH = 5.5, 25 °C): 2.66 × 10^−2
- Correlation parameter a (Eq. 2, Cs = a + b·CCD) ([3]; pH = 5.5, 37 °C): 2.35 × 10^−3
- Correlation parameter b (Eq. 2, Cs = a + b·CCD) ([3]; pH = 5.5, 37 °C): 5.94 × 10^−2
- Correlation parameter a (Eq. 2, Cs = a + b·CCD) ([3]; pH = 7.0, 25 °C): 1.03 × 10^−3
- Correlation parameter b (Eq. 2, Cs = a + b·CCD) ([3]; pH = 7.0, 25 °C): 2.57 × 10^−2
- Correlation parameter a (Eq. 2, Cs = a + b·CCD) ([3]; pH = 7.0, 37 °C): 2.01 × 10^−3
- Correlation parameter b (Eq. 2, Cs = a + b·CCD) ([3]; pH = 7.0, 37 °C): 3.23 × 10^−2
- Stability constant K s of HP-β-CD complex ([3]; pH = 5.5, 25 °C): 27 (±2) dm·mol^−1
- Stability constant K s of HP-β-CD complex ([3]; pH = 5.5, 37 °C): 26 (±2) dm·mol^−1
- Stability constant K s of HP-β-CD complex ([3]; pH = 7, 25 °C): 26 (±2) dm·mol^−1
- Stability constant K s of HP-β-CD complex ([3]; pH = 7, 37 °C): 17 (±1) dm·mol^−1
